Like-named read-outs stand apart in the source and are kept apart here.
Experiments:
[1] = target: T1, α-Glucosidase (E.C. 3.2.1.20) from Saccharomyces cerevisiae (Saccharomyces cerevisiae, UniProt P53341); assay: α-Glucosidase inhibitory activity assay in vitro (PNPG substrate, absorbance at 405 nm); format: biochemical
T1 construct: purchased Sigma-Aldrich
Excerpt: Agilent 1290 Infinity LC-6520 Accurate-Mass QTOF-MS (Agilent Technologies, PaloAlto, CA, USA); Bruker DRX-400 (400MHz for ^1H and 100MHz for ^13C) spectrometer (Bruker, Rheinstetten, Germany); α-Glucosidase (E.C. 3.2.1.20) from Saccharomyces cerevisiae, p-nitrophenyl a-D-glucopyranoside (PNPG) and glutathione (GSH) were purchased from Sigma-Aldrich (St Louis, MO, USA). CNBr-activated Sepharose^TM 4B was purchased from Phamacia Biotech AB (Uppsala, Sweden). Distilled water was purified by a Milli-Q water purification apparatus (Millipore, Bedford, MA). All other reagents were of analytical grade.
Each of the dried ground powder (3 g) was extracted in 30 mL of 80% aqueous methanol by ultrasonic extraction for 60 min at room temperature. After centrifugation at 5000 rpm for 5 min, the combined extract was evaporated under reduced pressure to dryness. To each herb extract, DMSO was added to get 5 mg/mL solution, respectively.
The α-glucosidase inhibitory activity was determined spectrophotometrically on 96-well microplate reader. In brief, to a total of 310 μL of reaction mixture containing 265 μL of 67 mM phosphate buffer (pH 6.8), 10 μL of 3 mM glutathione, 25 μL of 10 mM p-nitrophenyl-α-D-glucopyranoside and 10 μL of investigated compounds in the wells was added 10 μL of 0.3 U/mL α-glucosidase and mixed. All the reagents used in this assay were dissolved in the same phosphate buffer (67 mM, pH 6.8). After incubation for 10 min at 37 °C, the reaction was stopped by adding […] of 0.1 M Na2CO3 solution. Then the absorbance of sample (AS) at 405 nm was recorded (SunriseTM microplate absorbance reader, Tecan, Austria). The control was the same mixture except for the investigated sample replaced by the phosphate buffer. The sample blank and control blank were the same mixtures as sample and control, respectively, except α-glucosidase was instead with phosphate buffer, respectively.
The α-glucosidase inhibition activity (%) of test sample could be calculated as
Inhibition activity (%) = […]
(§1) where AS, ASB, AC and ACB are the absorbance of sample, sample blank, control and control blank, respectively. The measurement was performed in triplicates. For kinetic analysis of AGH inhibition, a certain concentration of 0.6 U/mL AGH and different contents of sample compounds were incubated with a series of concentrations of substrate. The inhibitory kinetics of the investigated compounds was analyzed using the Lineweaver-Burk plot, double-reciprocal plot of the substrate concentration and velocity.

[2] = target: T1, α-Glucosidase (E.C. 3.2.1.20) from Saccharomyces cerevisiae; assay: Kinetic analysis of AGH inhibition (Lineweaver-Burk plot); format: biochemical
Procedure: as §1

[3] = target: T2, immobilized α-glucosidase (Saccharomyces cerevisiae, UniProt P53341); assay: AGH inhibitors screening by immobilized AGH affinity fishing with UHPLC-QTOF-MS; format: binding; details: C. rotundus extract; parallel control with blank sepharose supports
T2 construct: purchased Sigma-Aldrich
Procedure: a-Glucosidase (0.20 mg) was dissolved in coupling buffer (0.1 M NaHCO3 and 0.5 M NaCl at pH 8.3) at a concentration of 2.0 mg protein/mL. The protein solution was mixed with CNBr-activated Sepharose^TM 4B gel at room temperature in a ratio of […] protein solution to 5 mg Sepharose^TM powder, which would swell to about […] of wet gel. The gel slurry was rotated at room temperature for 1 h to ensure the enzyme bound to the beads. After protein coupling, the resident reactive sites on the gel were blocked by reacting with 0.01 M Tris-HCl buffer at pH 8.0 for 1 h at room temperature. […] Control supports were prepared in the same manner but with no AGH being added during the immobilization step.
200 mg ground C. rotundus powder was extracted in 20 mL of 80% aqueous methanol by ultrasonic extraction for 30 min. The extract was filtered and freeze-dried, then redissolved in 10 mL affinity buffer (67 mM KH2PO4 (containing 5% methanol) at pH 6.8) and filtered through a 0.45 μm membrane as the tested extract sample.
C. rotundus extracts (400 mL) was mixed with […] immobilized AGH gel and gently stirred at 37 °C for 20 min. After incubation with the extracts, the gel were washed with 400 mL affinity buffer (67 mM KH2PO4 (containing 5% methanol) at pH 6.8) four times to remove any unbound components and then treated with […] desorbed solution (50% methanol aqueous solution at pH 3.3) to release the captured potential inhibitors of AGH. The released components were collected and concentrated to 10 mL under N2 atmosphere at 40 °C, then applied to UPLC-QTOF-MS for peak identification. Elution from the control supports was collected and analyzed in the same manner.
UHPLC-MS was performed on an Agilent 1290 Infinity LC-6520 Accurate-Mass QTOF-MS (Agilent Corporation, CA, USA). Analytes eluted from the AGH coupling supports and control supports were separated on a poroshell 120 EC-C18 column (3.0 × 50 mm, 2.7 µm , Agilent Corporation, MA, USA). The solvent system consisted of solvent A […] and solvent B (0.5% formic acid in water, v/v). The solvent A content of the mobile phase was gradient increased from 5% to 100% linearly in 20 min.
The flow rate was set at 0.4 mL/min. Mass analysis was performed in negative ESI ion mode. The operating parameters were as follows: drying gas (N2) flow rate, 8 L/min; drying gas temperature, 325 °C; nebulizer, 30 psig; capillary, 3500 V; skimmer, 65 V; fragmentor voltage, 100 V. The mass range was set at m/z 100–2000. The system was operated under Agilent MassHunter workstation acquisition software, version B.02.01 (Agilent Corporation, MA, USA).
The extract of C. rotundus was used as the real biological sample to carry out the affinity screening procedure, just as shown in Scheme 1. Firstly, α-glucosidase was immobilized on CNBr-activated sepharose beads, while blank supports were set as control. Secondly, immobilized α-glucosidase was incubated with 300 µL of C.
rotundus extracts to launch the affinity capture procedure. The highly-affinity components in C. rotundus could be specifically captured by the enzyme and fished out from the complex matrix. Thirdly, to characterize the captured compounds, the binders were released from immobilized α-glucosidase and subsequently separated and analyzed by UHPLC-QTOF MS. It was worth mentioning that not all the molecules retained on immobilized enzyme were of highly-affinity. Some of them might be non-specifically absorbed on the blank sepharose support. To eliminate this false positive, a parallel control was carried out throughout the whole screening procedure. By subtracting the signal of false positive, the highly-affinity ingredients could be recognized correctly, and these ingredients might be potent natural AGHI in C. rotundus.

α-glucosidase = tested on: α-glucosidase; design: method as in PMID 24044731; details: cited from earlier work

T2 sequence (P53341 whole entry): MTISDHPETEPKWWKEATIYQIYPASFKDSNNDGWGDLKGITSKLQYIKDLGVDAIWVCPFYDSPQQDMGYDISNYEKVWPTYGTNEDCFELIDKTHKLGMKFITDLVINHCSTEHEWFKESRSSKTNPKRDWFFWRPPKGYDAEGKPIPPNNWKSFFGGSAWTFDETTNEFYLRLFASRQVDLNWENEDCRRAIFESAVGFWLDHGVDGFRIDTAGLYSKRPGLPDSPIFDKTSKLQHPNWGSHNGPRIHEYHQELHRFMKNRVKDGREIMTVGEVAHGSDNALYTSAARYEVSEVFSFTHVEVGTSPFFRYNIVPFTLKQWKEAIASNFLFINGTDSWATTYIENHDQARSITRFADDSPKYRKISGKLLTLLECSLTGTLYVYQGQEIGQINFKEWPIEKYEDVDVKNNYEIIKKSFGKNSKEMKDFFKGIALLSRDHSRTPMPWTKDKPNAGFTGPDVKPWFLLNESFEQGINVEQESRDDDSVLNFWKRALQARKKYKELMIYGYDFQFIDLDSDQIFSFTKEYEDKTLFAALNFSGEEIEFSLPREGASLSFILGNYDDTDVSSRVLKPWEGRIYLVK
T1 sequence (P53341 whole entry): as above

Compound	IC50 [1] [µM]	α-glucosidase inhibitory activity in words [1]	Ki [2] [µM]	alpha-glucosidase inhibitory kinetic mode ([2]; Lineweaver-Burk plots)	Affinity capture result on immobilized α-glucosidase after subtracting the blank support signal [3]	α-glucosidase inhibitors in C. rotundus (reported) (α-glucosidase)	IC50 ([1]; Table 2, read-out: alpha-glucosidase inhibitory IC50) [µM]	Ki ([2]; Lineweaver-Burk plots, Table 2, read-out: alpha-glucosidase inhibitory Ki) [µM]
Oc1ccc(/C=C/c2c3c(cc4c2[C@H](c2cc(O)cc(O)c2)[C@@H](c2ccc(O)c(O)c2)O4)O[C@H](c2ccc(O)c(O)c2)[C@H]3c2cc(O)cc(O)c2)cc1 [Cyperusphenol A (1), (E)-cyperusphenol A]	1.43 ± 0.11	potent natural AGHIs	11.2	Noncompetitive	highly-affinity binders	–	–	–
Oc1ccc(/C=C/c2c3c(cc4c2[C@@H](c2cc(O)cc(O)c2)[C@H](c2ccc(O)c(O)c2)O4)O[C@H](c2ccc(O)c(O)c2)[C@H]3c2cc(O)cc(O)c2)cc1 [Mesocyperusphenol A (2), mesocyperusphenol A]	1.44 ± 0.17	potent natural AGHIs	10.7	Noncompetitive	highly-affinity binders	–	–	–
CC1=C2C(O)C3CC(O)C(C)C2(CC1O)C3(C)C (stereo not drawn) [sugetriol]	–	–	–	–	absorbed only on the support matrix	–	–	–
Oc1cc2c3c(c1)C1c4c(cc(O)cc4C4c5c(cc(O)cc5C3C(c3ccc(O)c(O)c3)O2)OC4c2ccc(O)c(O)c2)OC1c1ccc(O)c(O)c1 (stereo not drawn) [Cyperusphenol D (3), Cyperusphenol D]	1.18 ± 0.11	potent natural AGHIs	8.63	Noncompetitive	highly-affinity binders	–	–	–
C[C@H]1O[C@H](O[C@H]2[C@H](O)[C@@H](O)[C@@H](O[C@H]3[C@H](O)[C@@H](O)C(O)O[C@@H]3CO)O[C@@H]2CO)[C@H](O)[C@@H](O)[C@@H]1N[C@H]1C=C(CO)[C@@H](O)[C@H](O)[C@H]1O (stereo partly drawn) [Acarbose (reference), Acarbose, reference compound]	–	–	–	competitive	–	–	–	–
Oc1cc(O)cc(C2c3c(/C=C/c4ccc(O)c(O)c4)cc(O)cc3OC2c2ccc(O)c(O)c2)c1 (stereo not drawn) [Scirpusins B (4), Scirpusins B]	13.3 ± 1.66	–	95.4	Noncompetitive	highly-affinity binders	natural α-glucosidase inhibitors	–	–
Oc1ccc(/C=C/c2cc(O)cc3c2C(c2cc(O)cc(O)c2)C(c2ccc(O)c(O)c2)O3)cc1 (stereo not drawn) [Scirpusins A (5), Scirpusins A]	–	–	–	Noncompetitive	highly-affinity binders	natural α-glucosidase inhibitors	21.4 ± 1.4	136
